In PubChem BioAssay AID1963846 (Molecular Pharmacology Branch, DTP, NCI, 2024):

Test system: 454973-116-R2-J3-PDC complex spheroid viability
Experiment: Anticancer human tumor 454973-116-R2-J3-PDC patient-derived pancreatic carcinoma cell line growth inhibition [POLQ]
Details: for IC50: curve of first compound; for viability, T/C: stronger effect = lower value
Outline: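 Patient-derived tumour cells were co-cultured with HUVEC and mesenchymal stem cells as multicellular spheroids at 37 °C. They were treated with POLQ inhibitors (novobiocin, ART-558, RP6685) alone or combined with other agents. Top concentrations were at or near clinical Cmax (otherwise 10 microM; SN-38 at 1 microM), decreasing in half-log steps.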

[1] = second compound 0.0316 µM, first compound 0.0316 µM
[2] = second compound 0.0316 µM, first compound 0.1 µM
[3] = second compound 0.0316 µM, first compound 0.316 µM
[4] = second compound 0.0316 µM, first compound 1 µM
[5] = second compound 0.0316 µM, first compound 3.16 µM
[6] = second compound 0.0316 µM, first compound 10 µM
[7] = second compound 0.1 µM, first compound 0.0316 µM
[8] = second compound 0.1 µM, first compound 0.1 µM
[9] = second compound 0.1 µM, first compound 0.316 µM
[10] = second compound 0.1 µM, first compound 1 µM
[11] = second compound 0.1 µM, first compound 3.16 µM
[12] = second compound 0.1 µM, first compound 10 µM
[13] = second compound 0.316 µM, first compound 0.0316 µM
[14] = second compound 0.316 µM, first compound 0.1 µM
[15] = second compound 0.316 µM, first compound 0.316 µM
[16] = second compound 0.316 µM, first compound 1 µM
[17] = second compound 0.316 µM, first compound 3.16 µM
[18] = second compound 0.316 µM, first compound 10 µM
[19] = second compound 1 µM, first compound 0.0316 µM
[20] = second compound 1 µM, first compound 0.1 µM
[21] = second compound 1 µM, first compound 0.316 µM
[22] = second compound 1 µM, first compound 1 µM
[23] = second compound 1 µM, first compound 3.16 µM
[24] = second compound 1 µM, first compound 10 µM
[25] = second compound 3.16 µM, first compound 0.0316 µM
[26] = second compound 3.16 µM, first compound 0.1 µM
[27] = second compound 3.16 µM, first compound 0.316 µM
[28] = second compound 3.16 µM, first compound 1 µM
[29] = second compound 3.16 µM, first compound 3.16 µM
[30] = second compound 3.16 µM, first compound 10 µM
[31] = second compound 10 µM, first compound 0.0316 µM
[32] = second compound 10 µM, first compound 0.1 µM
[33] = second compound 10 µM, first compound 0.316 µM
[34] = second compound 10 µM, first compound 1 µM
[35] = second compound 10 µM, first compound 3.16 µM
[36] = second compound 10 µM, first compound 10 µM
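Note: spheroids exposed to drugs for seven days before measurement.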
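Throughout, for viability, T/C: percent viability relative to DMSO vehicle control wells taken as 100%.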

CC1COCCN1c1cc(C2(O)CC3CCC(C2)O3)c2cnn(-c3ccn[nH]3)c2n1 (stereo not drawn) + Nc1ccc(C#CCN(C(=O)Cc2ncc(C(F)(F)F)cc2C(F)(F)F)c2ccc(F)cc2)nn1
IC50 (second compound 0.0316 µM): 0.12 µM | IC50 (second compound 0.1 µM): 0.114 µM | IC50 (second compound 0.316 µM): 0.0868 µM | IC50 (second compound 1 µM): 0.0952 µM | IC50 (second compound 3.16 µM): 0.104 µM | IC50 (second compound 10 µM): 0.108 µM | viability, T/C [1]: 83.7% | viability, T/C [2]: 55.6% | viability, T/C [3]: 21% | viability, T/C [4]: 12.5% | viability, T/C [5]: 16.3% | viability, T/C [6]: 10.3% | viability, T/C [7]: 84.1% | viability, T/C [8]: 54% | viability, T/C [9]: 19.8% | viability, T/C [10]: 12.3% | viability, T/C [11]: 15.2% | viability, T/C [12]: 13% | viability, T/C [13]: 87.1% | viability, T/C [14]: 44.8% | viability, T/C [15]: 18.7% | viability, T/C [16]: 11.5% | viability, T/C [17]: 14.3% | viability, T/C [18]: 11.2% | viability, T/C [19]: 80.4% | viability, T/C [20]: 48.6% | viability, T/C [21]: 15.4% | viability, T/C [22]: 11% | viability, T/C [23]: 13.4% | viability, T/C [24]: 11.7% | viability, T/C [25]: 88.1% | viability, T/C [26]: 51.1% | viability, T/C [27]: 20.9% | viability, T/C [28]: 10.7% | viability, T/C [29]: 15.2% | viability, T/C [30]: 10.3% | viability, T/C [31]: 91.6% | viability, T/C [32]: 52.4% | viability, T/C [33]: 14.7% | viability, T/C [34]: 9.37% | viability, T/C [35]: 11.2% | viability, T/C [36]: 10.2%

CCc1cc2c(N3CCc4c(cc(Cn5ccnc5)cc4-c4cn(C)nc4C(F)(F)F)C3=O)cc(C)nc2c(OC)n1 + Nc1ccc(C#CCN(C(=O)Cc2ncc(C(F)(F)F)cc2C(F)(F)F)c2ccc(F)cc2)nn1
IC50 (second compound 0.0316 µM): > 10 µM | IC50 (second compound 0.1 µM): > 10 µM | IC50 (second compound 0.316 µM): > 10 µM | IC50 (second compound 1 µM): > 10 µM | IC50 (second compound 3.16 µM): > 10 µM | IC50 (second compound 10 µM): > 10 µM | viability, T/C [1]: 99.6% | viability, T/C [2]: 87.8% | viability, T/C [3]: 73.5% | viability, T/C [4]: 72.2% | viability, T/C [5]: 64.4% | viability, T/C [6]: 56.5% | viability, T/C [7]: 99.1% | viability, T/C [8]: 88.4% | viability, T/C [9]: 82.6% | viability, T/C [10]: 74.2% | viability, T/C [11]: 63.2% | viability, T/C [12]: 56.9% | viability, T/C [13]: 96.2% | viability, T/C [14]: 91.1% | viability, T/C [15]: 78.9% | viability, T/C [16]: 79.2% | viability, T/C [17]: 70.8% | viability, T/C [18]: 55% | viability, T/C [19]: 97.7% | viability, T/C [20]: 87.3% | viability, T/C [21]: 81.6% | viability, T/C [22]: 79% | viability, T/C [23]: 63% | viability, T/C [24]: 50.9% | viability, T/C [25]: 101% | viability, T/C [26]: 95.3% | viability, T/C [27]: 90.8% | viability, T/C [28]: 84.5% | viability, T/C [29]: 68.3% | viability, T/C [30]: 59.6% | viability, T/C [31]: 100% | viability, T/C [32]: 114% | viability, T/C [33]: 86.3% | viability, T/C [34]: 78.6% | viability, T/C [35]: 80.1% | viability, T/C [36]: 56.8%

COc1cc2cc(C(=O)CCC(=O)O)sc2cc1OC + Nc1ccc(C#CCN(C(=O)Cc2ncc(C(F)(F)F)cc2C(F)(F)F)c2ccc(F)cc2)nn1
IC50 (second compound 0.0316 µM): > 10 µM | IC50 (second compound 0.1 µM): > 10 µM | IC50 (second compound 0.316 µM): > 10 µM | IC50 (second compound 1 µM): > 10 µM | IC50 (second compound 3.16 µM): > 10 µM | IC50 (second compound 10 µM): > 10 µM | viability, T/C [1]: 96.7% | viability, T/C [2]: 101% | viability, T/C [3]: 112% | viability, T/C [4]: 101% | viability, T/C [5]: 107% | viability, T/C [6]: 98.9% | viability, T/C [7]: 98.2% | viability, T/C [8]: 103% | viability, T/C [9]: 100% | viability, T/C [10]: 105% | viability, T/C [11]: 107% | viability, T/C [12]: 104% | viability, T/C [13]: 93.8% | viability, T/C [14]: 101% | viability, T/C [15]: 107% | viability, T/C [16]: 104% | viability, T/C [17]: 111% | viability, T/C [18]: 94.3% | viability, T/C [19]: 110% | viability, T/C [20]: 103% | viability, T/C [21]: 106% | viability, T/C [22]: 122% | viability, T/C [23]: 108% | viability, T/C [24]: 99.2% | viability, T/C [25]: 118% | viability, T/C [26]: 110% | viability, T/C [27]: 113% | viability, T/C [28]: 109% | viability, T/C [29]: 116% | viability, T/C [30]: 107% | viability, T/C [31]: 115% | viability, T/C [32]: 114% | viability, T/C [33]: 118% | viability, T/C [34]: 117% | viability, T/C [35]: 119% | viability, T/C [36]: 105%

O=C(Nc1ccc(O)c(NS(=O)(=O)c2ccc(F)cc2)c1)c1ccc(-c2ccccc2)cc1 + Nc1ccc(C#CCN(C(=O)Cc2ncc(C(F)(F)F)cc2C(F)(F)F)c2ccc(F)cc2)nn1
IC50 (second compound 0.0316 µM): > 10 µM | IC50 (second compound 0.1 µM): > 10 µM | IC50 (second compound 0.316 µM): > 10 µM | IC50 (second compound 1 µM): > 10 µM | IC50 (second compound 3.16 µM): > 10 µM | IC50 (second compound 10 µM): > 10 µM | viability, T/C [1]: 109% | viability, T/C [2]: 107% | viability, T/C [3]: 108% | viability, T/C [4]: 114% | viability, T/C [5]: 108% | viability, T/C [6]: 86.5% | viability, T/C [7]: 101% | viability, T/C [8]: 107% | viability, T/C [9]: 110% | viability, T/C [10]: 103% | viability, T/C [11]: 103% | viability, T/C [12]: 89.9% | viability, T/C [13]: 105% | viability, T/C [14]: 104% | viability, T/C [15]: 109% | viability, T/C [16]: 107% | viability, T/C [17]: 110% | viability, T/C [18]: 89.2% | viability, T/C [19]: 110% | viability, T/C [20]: 108% | viability, T/C [21]: 111% | viability, T/C [22]: 112% | viability, T/C [23]: 109% | viability, T/C [24]: 80.9% | viability, T/C [25]: 107% | viability, T/C [26]: 106% | viability, T/C [27]: 106% | viability, T/C [28]: 120% | viability, T/C [29]: 123% | viability, T/C [30]: 86.8% | viability, T/C [31]: 123% | viability, T/C [32]: 112% | viability, T/C [33]: 112% | viability, T/C [34]: 120% | viability, T/C [35]: 109% | viability, T/C [36]: 85.5%
